Where a name gives a salt, the structure may show the parent alone. *1 amine or outer side, *2 acyl side, *3 side chain or, on linkers, in order; H or OH if unused. Where a SMILES comes first, the peptide text is derived from it. [ ]: non-standard residue; d: D form. The star is where a group is joined. Hydrocinnamoyl = O=C(CCc1ccccc1)*; 3Pal = N[C@@H](Cc1cccnc1)C(=O)O; 2Thi = N[C@@H](Cc1cccs1)C(=O)O; CO = O=C([*:1])[*:2]; Tfa = O=C(C(F)(F)F)*; NHPh = c1ccc(N*)cc1
Legend:
Interstitial collagenase = molecular target: T1, Interstitial collagenase (Homo sapiens, UniProt P03956); assay: Inhibitory activity against human fibroblast collagenase (MMP-1)
T1 sequence (P03956 whole entry): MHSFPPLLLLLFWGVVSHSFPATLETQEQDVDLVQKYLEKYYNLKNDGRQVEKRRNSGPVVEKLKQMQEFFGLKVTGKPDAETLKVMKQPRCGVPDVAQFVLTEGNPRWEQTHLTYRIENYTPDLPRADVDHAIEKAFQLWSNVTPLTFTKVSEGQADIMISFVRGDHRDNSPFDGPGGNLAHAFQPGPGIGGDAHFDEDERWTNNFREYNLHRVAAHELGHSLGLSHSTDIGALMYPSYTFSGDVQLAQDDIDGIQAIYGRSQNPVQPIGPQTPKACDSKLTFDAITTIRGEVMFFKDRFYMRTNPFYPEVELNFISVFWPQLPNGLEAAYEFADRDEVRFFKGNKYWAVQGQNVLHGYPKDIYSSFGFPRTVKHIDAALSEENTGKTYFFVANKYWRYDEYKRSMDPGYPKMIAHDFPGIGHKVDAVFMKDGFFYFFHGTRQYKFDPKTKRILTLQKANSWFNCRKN

[1] = molecular target: Matrix metalloproteinase-9 (Homo sapiens, UniProt P14780); assay: Compound was tested for its inhibitory activity against 92 kD gelatinase (MMP-9)
Matrix metalloproteinase-9, sequence (P14780 whole entry): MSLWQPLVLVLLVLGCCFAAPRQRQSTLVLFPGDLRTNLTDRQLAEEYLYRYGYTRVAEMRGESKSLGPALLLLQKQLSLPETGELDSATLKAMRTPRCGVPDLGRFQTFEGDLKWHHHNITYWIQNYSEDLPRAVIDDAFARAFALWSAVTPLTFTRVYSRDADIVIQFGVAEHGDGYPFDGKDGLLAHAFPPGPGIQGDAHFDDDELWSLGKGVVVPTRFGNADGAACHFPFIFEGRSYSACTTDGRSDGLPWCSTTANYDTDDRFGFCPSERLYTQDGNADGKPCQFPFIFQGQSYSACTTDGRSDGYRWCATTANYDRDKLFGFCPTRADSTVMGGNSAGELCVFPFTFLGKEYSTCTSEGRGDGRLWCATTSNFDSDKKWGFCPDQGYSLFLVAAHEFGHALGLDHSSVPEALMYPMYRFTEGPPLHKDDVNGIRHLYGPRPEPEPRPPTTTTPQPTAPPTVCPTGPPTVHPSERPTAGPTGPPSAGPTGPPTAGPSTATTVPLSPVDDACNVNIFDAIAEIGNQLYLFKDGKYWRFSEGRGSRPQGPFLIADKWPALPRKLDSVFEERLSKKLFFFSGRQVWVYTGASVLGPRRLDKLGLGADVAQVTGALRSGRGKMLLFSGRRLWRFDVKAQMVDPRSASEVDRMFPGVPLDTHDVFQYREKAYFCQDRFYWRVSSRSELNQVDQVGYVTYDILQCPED

Q: `NC(=O)[C@H](Cc1cccnc1)NC(=O)[C@H](CS)NC(=O)c1ccc2[nH]nnc2c1` was tested. Which IC50 (Interstitial collagenase) did it give?
A: The IC50 was 12 nM.

Q: What about the IC50 [1] of the same compound?
A: Its IC50 is 42 nM.

Q: Which IC50 (Interstitial collagenase) does the source give for `NC(=O)[C@H](Cc1ccccc1)NC(=O)[C@H](CS)NC(=O)CCc1ccccc1` (Hydrocinnamoyl-Cys-Phe-NH2) here?
A: The IC50 was 3500 nM.

Q: What about the IC50 [1] of the same compound?
A: The IC50 was 38 nM.

Q: Which results are given for `NC(=O)[C@H](Cc1ccccc1)NC(=O)[C@H](CS)NC(=O)c1ccc(-n2cccc2)nc1`?
A: IC50 (Interstitial collagenase): 250 nM; IC50 [1]: 15 nM

Q: With `NC(=O)[C@H](Cc1ccccc1)NC(=O)[C@H](CS)NC(=O)c1ccc2[nH]nnc2c1` as the compound, how does the IC50 (Interstitial collagenase) read?
A: Its IC50 is 8 nM.

Q: What about the IC50 [1] of the same compound?
A: Its IC50 is 24 nM.

Q: Which IC50 (Interstitial collagenase) does the source give for `CC(=O)N[C@@H](CS)C(=O)N[C@@H](Cc1ccccc1)C(N)=O` (Ac-Cys-Phe-NH2) here?
A: The IC50 was greater than 100000 nM.

Q: For `NC(=O)[C@H](Cc1ccccc1)NC(=O)[C@H](CS)NC(=O)c1ccc(=O)[nH]c1`, which IC50 (Interstitial collagenase) is on record?
A: The IC50 was 83 nM.

Q: What about the IC50 [1] of the same compound?
A: The IC50 was 41 nM.

Q: `CC(=O)N[C@@H](CS)C(=O)N[C@@H](Cc1cccs1)C(N)=O` (Ac-Cys-[2Thi]-NH2) was tested. Which IC50 (Interstitial collagenase) did it give?
A: Its IC50 is 4000 nM.

Q: How did the IC50 (Interstitial collagenase) turn out when `NC(=O)[C@H](Cc1ccccc1)NC(=O)[C@H](CS)NC(=O)c1ccc(-c2ccccc2)cc1` was run?
A: The IC50 was 425 nM.

Q: And the IC50 [1]?
A: Its IC50 is 21 nM.

Q: How did the IC50 (Interstitial collagenase) turn out when `CC(=O)N[C@@H](CS)C(=O)N[C@H](C(N)=O)C(C)C` (Ac-Cys-Val-NH2) was run?
A: Its IC50 is 7000 nM.

Q: What does the source list for `NC(=O)[C@H](Cc1ccccc1)NC(=O)[C@H](CS)NC(=O)c1ccc2c(c1)OCO2`?
A: IC50 (Interstitial collagenase): 215 nM; IC50 [1]: 19 nM

Q: Which IC50 (Interstitial collagenase) does the source give for `CN(C)c1ccc(C(=O)N[C@@H](CS)C(=O)N[C@@H](Cc2ccccc2)C(N)=O)cc1` here?
A: Its IC50 is 147 nM.

Q: And the IC50 [1]?
A: Its IC50 is 80 nM.

Q: Which results are given for `NC(=O)[C@H](Cc1ccccc1)NC(=O)[C@H](CS)NC(=O)c1cn[nH]c1`?
A: IC50 (Interstitial collagenase): 26 nM; IC50 [1]: 71 nM

Q: What does the source list for `NC(=O)[C@H](Cc1ccccc1)NC(=O)[C@H](CS)NC(=O)c1ccsc1`?
A: IC50 (Interstitial collagenase): 130 nM; IC50 [1]: 82 nM

Q: With `NC(=O)[C@H](Cc1cccnc1)NC(=O)[C@H](CC(=O)O)NC(=O)c1ccc2[nH]nnc2c1` as the compound, how does the IC50 (Interstitial collagenase) read?
A: The IC50 was 453 nM.

Q: What does the source list for `NC(=O)[C@H](Cc1ccccc1)NC(=O)[C@H](CS)NC(=O)COc1ccccc1`?
A: IC50 (Interstitial collagenase): 598 nM; IC50 [1]: 34 nM

Q: What does the source list for `NC(=O)[C@H](Cc1cccs1)NC(=O)[C@H](CS)NC(=O)c1ccc2nn[nH]c2c1`?
A: IC50 (Interstitial collagenase): 34 nM; IC50 [1]: 102 nM

Q: Which IC50 (Interstitial collagenase) does the source give for `NC(=O)[C@H](Cc1ccccc1)NC(=O)[C@H](CS)NC(=O)c1ccoc1` here?
A: The IC50 was 171 nM.

Q: What about the IC50 [1] of the same compound?
A: The IC50 was 84 nM.

Q: With `COC(=O)[C@H](Cc1ccccc1)NC(=O)[C@H](CS)NC(=O)C(F)(F)F` (Tfa-Cys-Phe-OMe) as the compound, how does the IC50 (Interstitial collagenase) read?
A: Its IC50 is 63 nM.

Q: And the IC50 [1]?
A: Its IC50 is greater than 1000 nM.

Q: Which IC50 (Interstitial collagenase) does the source give for `NC(=O)[C@H](Cc1ccccc1)NC(=O)[C@H](CS)NC(=O)Nc1ccccc1` ({NHPh-CO}-Cys-Phe-NH2) here?
A: The IC50 was 40 nM.

Q: What about the IC50 [1] of the same compound?
A: The IC50 was 11 nM.

Q: For `NC(=O)[C@H](Cc1cccnc1)NC(=O)[C@H](CS)NC(=O)c1cn[nH]c1`, which IC50 (Interstitial collagenase) is on record?
A: The IC50 was 26 nM.

Q: And the IC50 [1]?
A: The IC50 was 71 nM.

Q: How did the IC50 (Interstitial collagenase) turn out when `CC(=O)N[C@@H](CS)C(=O)N[C@@H](Cc1c[nH]c2ccccc12)C(N)=O` (Ac-Cys-Trp-NH2) was run?
A: The IC50 was 5000 nM.

Q: Which IC50 (Interstitial collagenase) does the source give for `CC(=O)N[C@@H](CS)C(=O)N[C@@H](Cc1cccnc1)C(N)=O` (Ac-Cys-[3Pal]-NH2) here?
A: Its IC50 is 4000 nM.

Q: `NC(=O)[C@H](Cc1ccccc1)NC(=O)[C@H](CS)NC(=O)C(F)(F)F` (Tfa-Cys-Phe-NH2) was tested. Which IC50 (Interstitial collagenase) did it give?
A: The IC50 was 40 nM.

Q: And the IC50 [1]?
A: The IC50 was greater than 1000 nM.

Q: Which results are given for `NC(=O)[C@H](Cc1ccccc1)NC(=O)[C@H](CS)NC(=O)c1ccncc1`?
A: IC50 (Interstitial collagenase): 93 nM; IC50 [1]: 41 nM

Q: What does the source list for `NC(=O)[C@H](Cc1ccccc1)NC(=O)[C@H](CS)NC(=O)c1cccs1`?
A: IC50 (Interstitial collagenase): 105 nM; IC50 [1]: 49 nM
